The IC50 is the concentration needed to halve the response being measured. Read a low IC50 as higher potency. One may read the inhibition as the percentage by which the read-out fell short of the control. Read a high inhibition as strong suppression.

This is an account of results in ChEMBL document CHEMBL1131757, “4,10-dihydro-5H-thieno[3,2-c][1]benzazepine derivatives and 9,10-dihydro-4H-thieno[2,3-c][1]benzazepine derivatives as orally active arginine vasopressin receptor antagonists” (Bioorg Med Chem Lett, 1999).

The subject of one data set is Rattus norvegicus. The experiment in a line: Amount of urine output was measured in rat at a dose of 10 mg/kg administered orally. On the set-up: dose 10 mg/kg, route oral. In kind it is ADME, organism-based. The conditions noted are these: in vivo, po.
Data set [1] addresses T1, Vasopressin V1a receptor (Homo sapiens, UniProt P37288). The experiment in a line: In vitro inhibition of [3H]- AVP binding to V1a receptor from human platelet membrane.
Target sequence in this assay (P37288 whole entry): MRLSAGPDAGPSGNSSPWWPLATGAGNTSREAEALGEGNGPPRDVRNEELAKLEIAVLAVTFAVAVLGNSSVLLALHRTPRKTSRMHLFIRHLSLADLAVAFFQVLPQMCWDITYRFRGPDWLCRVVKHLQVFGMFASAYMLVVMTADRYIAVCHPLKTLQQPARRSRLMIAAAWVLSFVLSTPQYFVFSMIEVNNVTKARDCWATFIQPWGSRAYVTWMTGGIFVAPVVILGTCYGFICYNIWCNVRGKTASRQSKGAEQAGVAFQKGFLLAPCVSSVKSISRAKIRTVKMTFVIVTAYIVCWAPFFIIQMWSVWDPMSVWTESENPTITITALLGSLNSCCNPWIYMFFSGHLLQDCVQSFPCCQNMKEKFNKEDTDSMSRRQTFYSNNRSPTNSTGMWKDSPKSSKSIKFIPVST
The target in another data set is Vasopressin V2 receptor (Homo sapiens, UniProt P30518). As to the kind of experiment: In vitro inhibition of [3H]AVP binding to human V2 receptor from murine fibroblast cell line (LV2). In kind it is cell-based.
Data set [2] deals with T1, Vasopressin V1a receptor. The experiment in a line: In vitro inhibition of [3H]- AVP binding to V1a receptor from human platelet membrane at 10 uM.
Target sequence in this assay (P37288 whole entry, looked up): as the sequence (P37288 whole entry) above

The structures appear in SMILES notation.

Sequence of Vasopressin V2 receptor (P30518 whole entry): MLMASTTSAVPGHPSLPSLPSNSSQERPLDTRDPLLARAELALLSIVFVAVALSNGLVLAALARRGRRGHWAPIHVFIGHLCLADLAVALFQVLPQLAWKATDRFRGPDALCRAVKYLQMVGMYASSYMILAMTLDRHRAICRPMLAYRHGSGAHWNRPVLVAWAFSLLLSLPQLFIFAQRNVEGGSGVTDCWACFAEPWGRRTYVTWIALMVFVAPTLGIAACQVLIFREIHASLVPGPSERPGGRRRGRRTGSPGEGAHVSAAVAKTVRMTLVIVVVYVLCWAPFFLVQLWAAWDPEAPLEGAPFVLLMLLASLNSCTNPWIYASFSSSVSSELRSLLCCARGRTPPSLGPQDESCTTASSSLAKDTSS

In the data set on Rattus norvegicus, `Cc1ccc(F)cc1C(=O)Nc1ccc(C(=O)N2Cc3sccc3Cc3ccccc32)cn1` had a Urine volume of 16.5 ml 4hr-1.

For the compound `O=C(Nc1ccc(C(=O)N2Cc3sccc3Cc3ccccc32)cc1)c1ccc(Cl)cc1Cl`, the Urine volume in the data set with Rattus norvegicus was determined as 5.8 ml 4hr-1. For the same compound, the IC50 was determined as 43 nM on Vasopressin V1a receptor [1] and 19 nM on Vasopressin V2 receptor.

`Cc1ccc(F)cc1C(=O)Nc1ccc(C(=O)N2Cc3cccn3Cc3ccccc32)c(Cl)c1` [LIXIVAPTAN] displayed a Urine volume with Rattus norvegicus of 35 ml 4hr-1.

In the data set on Rattus norvegicus, `Cc1ccccc1C(=O)Nc1ccc(C(=O)N2Cc3sccc3Cc3ccccc32)cc1` returned a Urine volume of 13.5 ml 4hr-1. Moreover, the IC50 on Vasopressin V1a receptor [1] was 8.5 nM; at Vasopressin V2 receptor, 0.7 nM.

In turn, `Cc1ccccc1C(=O)Nc1ccc(C(=O)N2Cc3ccsc3Cc3ccccc32)cc1` came in with a Urine volume in the data set with Rattus norvegicus of 4.5 ml 4hr-1.

`Cc1ccc(F)cc1C(=O)Nc1ccc(C(=O)N2Cc3sccc3Cc3ccccc32)c(Cl)c1` showed a Urine volume with Rattus norvegicus of 30 ml 4hr-1. Moreover, the inhibition on Vasopressin V1a receptor [2] came to 59%. Moreover, the IC50 at Vasopressin V2 receptor was determined as 6.8 nM.
